Source: the RepoRT retention time repository (doi:10.1021/acs.analchem.1c00972)
Where a name gives a salt, the structure may show the parent alone.

Tests used:
Details in all cases: stereoisomer not certain
[1] = RP, Waters ACQUITY UPLC BEH C18, 100 × 1 mm, 1.7 µm, 50 °C, 0.3 mL/min, estimated dead time 0.17 min; A: water + 10 mM ammonium bicarbonate; B: 10% water + 90% methanol + 10 mM ammonium bicarbonate; gradient (min/%B) 0/0 15/100 21/100 22/0 30/0
[2] = RP, Waters ACQUITY UPLC BEH C18, 100 × 1 mm, 1.7 µm, 50 °C, 0.3 mL/min, estimated dead time 0.17 min; A: water + 0.1% formic acid + 20 mM ammonium formate; B: methanol + 0.1% formic acid + 20 mM ammonium formate; gradient (min/%B) 0/0 15/100 21/100 22/0 30/0
[3] = RP, Phenomenex Synergi Polar-RP, 100 × 3 mm, 2.5 µm, 40 °C, 0.4 mL/min, estimated dead time 1.1 min; A: water + 1 mM ammonium fluoride; B: methanol + 1 mM ammonium fluoride; C: acetonitrile; D: 50% isopropanol + 50% acetone; gradient (min/%B/%C/%D) 0/5/0/0 2/5/0/0 8/95/0/0 12/80/15/0 19/25/70/0 19.5/0/25/70 21.5/0/25/70 22.5/0/25/0 23/5/0/0

Compound | LC retention time [1] | LC retention time [2] | LC retention time [3]
Oc1ccccc1-c1ccccc1 [2-Phenylphenol] | 13.9 min |  | 9.93 min
Oc1ccc(Cl)cc1 [4-Chlorophenol] | 11.3 min |  | 8.39 min
CC(C)(c1ccccc1)c1ccc(O)cc1 [4-Cumylphenol] | 15.7 min |  | 11.1 min
CCCCCCCCCc1ccc(O)cc1 [4-n-Nonylphenol] | 18.1 min |  | 11.6 min
O=c1[nH]cc(F)c(=O)[nH]1 [5-Fluorouracil] |  | 7.72 min | 2.09 min
CCCc1cc(=O)[nH]c(=S)[nH]1 [6-Propyl-2-thiouracil] |  | 7.69 min | 8.14 min
CC1=CC(=O)NS(=O)(=O)O1 [Acesulfame] | 2.41 min | 2.66 min | 2.11 min
CC(C)N1C(=O)c2ccccc2NS1(=O)=O [Bentazone] | 7.66 min | 11.5 min | 7.2 min
CC(O)(CS(=O)(=O)c1ccc(F)cc1)C(=O)Nc1ccc(C#N)c(C(F)(F)F)c1 (stereo unspecified) [Bicalutamide] |  |  | 10.7 min
Oc1ccc(Cc2ccc(O)cc2)cc1 [Bisphenol F] | 11.9 min |  | 9.94 min
O=S(=O)(c1ccc(O)cc1)c1ccc(O)cc1 [Bisphenol S] |  |  | 9.36 min
Oc1c(Br)cc(Cl)cc1Cc1cc(Cl)cc(Br)c1O [Bromochlorophen] | 16.4 min | 17.3 min | 11.2 min
N#Cc1cc(Br)c(O)c(Br)c1 [Bromoxynil] |  |  | 8.68 min
Oc1ccc(Cl)cc1Cc1ccccc1 [Chlorophene] | 15.9 min |  | 11.2 min
N#Cc1c(O)c(Cl)c(Cl)c(C#N)c1Cl [Chlorothalonil-4-hydroxy] | 11.8 min | 12.3 min | 9.06 min
CCCCCCCCCCOS(=O)(=O)O [Decyl sulfate] | 15.1 min | 14.8 min | 9.26 min
Oc1ccc(Cl)cc1Cc1cc(Cl)ccc1O [Dichlorophen] | 15.1 min | 15.2 min | 10.9 min
CC(Oc1ccc(Cl)cc1Cl)C(=O)O (stereo unspecified) [Dichlorprop] | 11.8 min | 14 min | 8.48 min
CCC(C)c1cc([N+](=O)[O-])cc([N+](=O)[O-])c1O (stereo unspecified) [Dinoseb] | 12.4 min | 15.5 min | 10 min
CCCCCCCCCCCCOS(=O)(=O)O [Dodecyl sulfate] | 16.4 min | 16.2 min | 9.67 min
N#Cc1nn(-c2c(Cl)cc(C(F)(F)F)cc2Cl)c(N)c1S(=O)C(F)(F)F (stereo unspecified) [Fipronil] |  |  | 10.9 min

Compound | LC retention time [1] | LC retention time [2] | LC retention time [3]
O=C(NC(=O)c1c(F)cccc1F)Nc1ccc(Oc2ccc(C(F)(F)F)cc2Cl)cc1F [Flufenoxuron] |  |  | 11.9 min
O=c1c(-c2ccc(O)cc2)coc2cc(O)cc(O)c12 [Genistein] |  |  | 10.3 min
CCC1=C(C)CN(C(=O)NCCc2ccc(S(=O)(=O)NC(=O)NC3CCC(C)CC3)cc2)C1=O (stereo unspecified) [Glimepiride] |  |  | 11.3 min
CCCC1CC(C(=O)NC(C(C)O)C2OC(SC)C(O)C(O)C2O)N(C)C1 (stereo unspecified) [Lincomycin] |  |  | 9.98 min
CCCCc1nc(Cl)c(CO)n1Cc1ccc(-c2ccccc2-c2nn[nH]n2)cc1 [Losartan] |  |  | 9.49 min
Cc1cc(Cl)ccc1OCC(=O)O [MCPA] |  |  | 8.16 min
Cc1cc(Cl)ccc1OC(C)C(=O)O (stereo unspecified) [Mecoprop] |  |  | 8.57 min
CC(C)(O)c1ccccc1CCC(SCC1(CC(=O)O)CC1)c1cccc(C=Cc2ccc3ccc(Cl)cc3n2)c1 (stereo unspecified) [Montelukast] | 16.6 min |  | 11.9 min
COc1c(C)c2c(c(O)c1CC=C(C)CCC(=O)O)C(=O)OC2 [Mycophenolic acid] |  |  | 10.3 min
CCOC(=O)C1=C(C)NC(C)=C(C(=O)OC)C1c1cccc([N+](=O)[O-])c1 (stereo unspecified) [Nitrendipin] |  |  | 11.2 min
O=C1CN(N=Cc2ccc([N+](=O)[O-])o2)C(=O)N1 [Nitrofurantoin] |  |  | 8.69 min
CCCN(CCC)c1c([N+](=O)[O-])cc(S(N)(=O)=O)cc1[N+](=O)[O-] [Oryzalin] |  |  | 11.2 min
O=c1[nH]c(=O)c2cn[nH]c2[nH]1 [Oxypurinol] |  |  | 2.44 min
O=S(=O)(O)C(F)(F)C(F)(F)C(F)(F)C(F)(F)C(F)(F)C(F)(F)C(F)(F)C(F)(F)F [Perfluorooctanesulfonic acid] | 15.5 min |  | 9.25 min
CCC(=O)Nc1ccc(Cl)c(Cl)c1 [Propanil] |  |  | 10.6 min
O=C(c1ccc(OCCN2CCCCC2)cc1)c1c(-c2ccc(O)cc2)sc2cc(O)ccc12 [Raloxifene] |  |  | 16.2 min
OCC1OC(OC2(CCl)OC(CCl)C(O)C2O)C(O)C(O)C1Cl (stereo unspecified) [Sucralose] |  |  | 8 min
CS(=O)(=O)c1ccc(C(=O)C2C(=O)CCCC2=O)c(Cl)c1 [Sulcotrione] |  |  | 7.69 min
Oc1cc(Cl)ccc1Oc1ccc(Cl)cc1Cl [Triclosan] |  |  | 11.5 min
Cc1cc(O)ccc1Cl [p-Chlorocresol] | 13 min |  | 8.57 min

Second part, the compound after the results:

LC retention time [1] | LC retention time [2] | LC retention time [3] | Compound
12.7 min | 12.5 min | 10 min | Oc1cccc2ccccc12 [1-Naphthol]
8.6 min | 8.66 min | 7.25 min | O=S(=O)(O)c1ccc2ccccc2c1 [2-Naphthalene sulfonic acid]
10.5 min | 10.6 min | 9.61 min | O=c1[nH]c2ccccc2s1 [2-hydroxybenzothiazole]
7.83 min | 10.5 min | 8.54 min | O=C(O)CCC(=O)c1ccc(F)cc1 [4-Fluorobenzoylpropionic acid]
3.3 min | 9.08 min | 9.25 min | O=[N+]([O-])c1ccc(O)cc1 [4-Nitrophenol]
2.77 min | 2.96 min | 2.01 min | O=S(=O)(O)c1ccccc1 [Benzenesulfonic acid]
13.2 min | 14.3 min | 9.15 min | O=C(O)c1cc(Oc2ccc(Cl)cc2Cl)ccc1[N+](=O)[O-] [Bifenox free acid]
 | 18.3 min | 10.3 min | CC(C)(c1ccc(O)cc1)c1ccc(O)cc1 [Bisphenol A]
14 min |  | 10.6 min | CCCCOC(=O)c1ccc(O)cc1 [Butylparaben]
 |  | 11.1 min | Cc1ccc(-c2cc(C(F)(F)F)nn2-c2ccc(S(N)(=O)=O)cc2)cc1 [Celecoxib]
 |  | 8.57 min | CC(C)(Oc1ccc(Cl)cc1)C(=O)O [Clofibric acid]
6.33 min | 6.54 min | 2.74 min | O=S(=O)(O)NC1CCCCC1 [Cyclamate]
 |  | 9.89 min | O=c1c(-c2ccc(O)cc2)coc2cc(O)ccc12 [Daidzein]
 |  | 10.1 min | O=C(O)Cc1ccccc1Nc1c(Cl)cccc1Cl [Diclofenac]
 |  | 7.88 min | COCCN(C(=O)CS(=O)(=O)O)c1c(C)cccc1C [Dimethachlor ESA]
 |  | 7.5 min | COCCN(C(=O)C(=O)O)c1c(C)cccc1C [Dimethachlor OA]
 |  | 8.45 min | NS(=O)(=O)c1cc(C(=O)O)c(NCc2ccco2)cc1Cl [Furosemide]
 | 14.1 min | 10.3 min | CC(C)Cc1ccc(C(C)C(=O)O)cc1 (stereo unspecified) [Ibuprofen]
 | 15.4 min | 10.5 min | COc1ccc2c(c1)c(CC(=O)O)c(C)n2C(=O)c1ccc(Cl)cc1 [Indometacin]
 |  | 9.75 min | CC(C(=O)O)c1cccc(C(=O)c2ccccc2)c1 (stereo unspecified) [Ketoprofen]
 |  | 10.6 min | Cc1cccc(Nc2ccccc2C(=O)O)c1C [Mefenamic acid]
 |  | 7.83 min | Cc1cccc(C)c1N(Cn1cccn1)C(=O)CS(=O)(=O)O [Metazachlor ESA]
12.1 min |  | 8.57 min | CCc1cccc(C)c1N(C(=O)CS(=O)(=O)O)C(C)COC (stereo unspecified) [Metolachlor ESA]
 |  | 8.42 min | CCc1cccc(C)c1N(C(=O)C(=O)O)C(C)COC (stereo unspecified) [Metolachlor OA]
 |  | 7.44 min | O=S(=O)(O)c1ccc2nc(-c3ccccc3)[nH]c2c1 [Phenylbenzimidazole sulfonic acid]
 |  | 2.24 min | NC(=O)c1ccccc1C(=O)O [Phthalamic acid]
14.7 min |  | 10.6 min | Cc1ccc(C(C)C)c(O)c1 [Thymol]
 |  | 11.3 min | O=C(Nc1ccc(Cl)cc1)Nc1ccc(Cl)c(Cl)c1 [Triclocarban]
 |  | 9.29 min | CCCCC(=O)N(Cc1ccc(-c2ccccc2-c2nn[nH]n2)cc1)C(C(=O)O)C(C)C (stereo unspecified) [Valsartan]
